Reference: patent publication US6056966A, “Method and compositions for treating impotence” (Baker Norton Pharmaceuticals, Inc., priority 1998, dated 2000)
“Also recorded” adds a separate entry of the source.

Experiments:
guinea pig penis = test: Topical application of nitrates to the penis of guinea pigs (change in penile volume); type: in vivo, male outbred Hartley guinea pigs; conditions: for AUC / AUC, % of 1,5-PDN / Peak Effect (% change) / Peak Effect, % of 1,5-PDN / Time of Peak Effect: guinea pig, in vivo
Text: Sixteen (16) male outbred Hartley guinea pigs were weighed and placed into treatment groups as follows:
The animals were placed in dorsal recumbency and held in place by restraints. The penis was extruded from the prepuce. Care was taken to not manipulate the penis. Length and diameter measurements were made using digital calipers. The length measurement was taken from the prepuce to the tip of the glans when the penis was extended. The diameter was taken 0.5 cm proximally from the tip of the glans.
The appropriate amount of test material was applied with a Wiretrol™ pipette to the base of the exposed penis. When application was complete, a timer was started. Measurements were taken at 0, 1, 2, 5, 10 and 15 minutes after application or until detumescence was observed.
The same procedure was followed to topically apply a series of various other nitrate and dinitrate compounds (in neat form) to the penis of guinea pigs. A summary of the activity of this series of nitrate compounds is shown in Table 2, with the AUC and peak effect values for each compound compared to 1,5-PDN.
The same test procedure was followed as in Example 3, but applying a 10% solution of NTG to the penis in varying dosage amounts.
Twelve (12) male Hartley guinea pigs were placed into treatment groups as follows: […]

rat aortic rings = test: Vascular reactivity: relaxation of rat aortic rings precontracted with phenylephrine; type: cell-based, Sprague-Dawley rats; conditions: FIG. 11, rat aortic strips
Text: Aortic rings (2-3 mm wide) from Sprague-Dawley rats were isolated and placed in a tissue bath. The vessels were precontracted with small amounts of phenylephrine. A transducer connected to a recorder was used to assess changes in tension. As noted in FIG. 10, there was no difference in vascular relaxation, either in potency or efficacy, between 1,5-PDN and 1,5-pentane dinitrite.

[1] = Intravenous injection of NTG vs. 1,5-pentane dinitrate in conscious rats (mean arterial blood pressure); type: in vivo, rat; conditions: 30 μg
Description: Rats (n=3) with indwelling catheters in the femoral artery for blood pressure measurements and vein for drug administration were given 1 dose of NTG (30 μg) and 6 doses of 1,5-PDN (30 μg-2000 μg) or vehicle (ethanol) in the conscious state. Changes in mean arterial blood pressure (diastolic blood pressure+1/3 (systolic-diastolic blood pressure)) were assessed after each dose of nitrate was given. About 0.5 hr to 1 hr separated the administration of each drug and dose.

penis = conditions: cited from earlier work
corpus cavernosum = test: Intracavernosal injection in anesthetized rats (cavernosal and arterial blood pressure)
penile smooth muscle = conditions: cited from earlier work

Row | SMILES | AUC (guinea pig penis) | AUC, % of 1,5-PDN (guinea pig penis) [%] | Peak Effect (% change) (guinea pig penis) | Peak Effect, % of 1,5-PDN (guinea pig penis) [%] | Time of Peak Effect (guinea pig penis) [min] | other results
1 | CC(C)CCO[N+](=O)[O-] [Isoamyl nitrate] | 309 | 70 | 40.3 | 104 | 2 | 
2 | C=CCCCO[N+](=O)[O-] [1-Pentene-5-nitrate] | 309 | 70 | 35.4 | 91 | 2 | 
3 | CC(C)CO[N+](=O)[O-] [Isobutyl nitrate] | 367 |  | 38.1 |  | 2 | 
4 | CCCC(C)O[N+](=O)[O-] (centres unmarked) [2-Pentane nitrate] | 323 | 73 | 36.0 | 93 | 5 | 
5 | O=[N+]([O-])OC1CCCC1 [Cyclopentyl nitrate] | 380 | 86 | 31.8 |  | 10 | 
6 | O=[N+]([O-])OCC(CO[N+](=O)[O-])O[N+](=O)[O-] [NTG, nitroglycerin] |  |  |  |  |  | vascular relaxation: NTG vs 1,5-PDN (rat aortic rings): no appreciable difference in the vascular relaxation; effect on penile volume (guinea pig penis; topical, FIGS. 1-3, 1,5-PDN vs saline, 10% NTG solution vs 1,5-PDN): minimal effect on penis volume as compared to 1,5-PDN; decrease in arterial pressure [1]: ~25%; patients with erections sufficient for vaginal penetration (penis; at home): 30 % of patients; patients with some response (penis; in vivo): 71 % of patients; change in intracavernosal pressure (corpus cavernosum; anesthetized rats, FIGS. 6-8): relatively small, dose-dependent increases in intracavernosal pressure; effect on systemic arterial blood pressure (corpus cavernosum; anesthetized rats, FIGS. 6-8): almost equivalent systemic ("downstream") reductions in arterial blood pressure; systemic reduction in arterial blood pressure (corpus cavernosum; at the highest dose used): over 30 mmHg; headache, systemic blood pressure (penile smooth muscle; in vivo): headaches were a common occurrence; also recorded: decrease in systemic blood pressure and development of headache; relaxation of penile smooth muscle and vascular tissue (penile smooth muscle; in vivo): causes relaxation of penile smooth muscle and vascular tissue, including cavernosal tissue; response compared with papaverine or placebo (penile smooth muscle; only one trial): better than papaverine, another vasodilator, or placebo
7 | CC(C)=CCO[N+](=O)[O-] [2-Methyl-2-butene-4-nitrate] | 305 | 69 | 32.6 | 84 | 5 | 
